Where two headings read alike, the source gives them in different places.

One series concerns the target T1, human VR1 (Homo sapiens, UniProt Q8NER1).
T1 construct: expressed in transfected cells
Nature of the series: capsaicin-induced Ca2+ influx in the human VR1-transfected CHO cell line (Assay 1). The format is cell-based. The settings on record: 10 nM capsaicin, human VR1-CHOluc9aeq cells, read-out: activity class. An excerpt: [Measurement of capsaicin-induced Ca^2+ influx in the human VR1-transfected CHO cell line] (Assay 1)
• (1) Establishment of the Human VR1-CHOluc9aeq Cell Line • Human vanilloid receptor (hVR1) cDNA was cloned from libraries of axotomized dorsal root ganglia (WO 00/29577). The cloned hVR1 cDNA was constructed with pcDNA3 vector and transfected into a CHOluc9aeq cell line. The cell line contains aequorin and CRE-luciferase reporter genes as read-out signals. The transfectants were cloned by limiting dilution in selection medium (DMEM/F12 medium (Gibco BRL) supplemented with 10% FCS, 1.4 mM Sodium pyruvate, 20 mM HEPES, 0.15% Sodium bicarbonate, 100 U/ml penicillin, 100 μg/ml streptomycin, 2 mM glutamine, non-essential amino acids and 2 mg/ml G418). Ca^2+ influx was examined in the capsaicin-stimulated clones. A high responder clone was selected and used for further experiments in the project. The human VR1-CHOluc9aeq cells were maintained in the selection medium and passaged every 3-4 days at 1-2.5×10^5 cells/flask ([…]). • (2) Measurement of Ca^2+ Influx Using FDSS-3000 • Human VR1-CHOluc9aeq cells were suspended in a culture medium which is the same as the selection medium except for G418 and seeded at a density of 1,000 cells per well into 384-well plates (black walled clear-base/Nalge Nunc International). Following the culture for 48 hrs the medium was changed to 2 μM Fluo-3 AM (Molecular Probes) and 0.02% Puronic F-127 in assay buffer (Hank's balanced salt solution (HBSS), 17 mM HEPES (pH7.4), 1 mM Probenecid, 0.1% BSA) and the cells were incubated for 60 min at. 25° C. After washing twice with assay buffer the cells were incubated with a test compound or vehicle for 20 min at 25° C. Mobilization of cytoplasmic Ca^2+ was measured by FDSS-3000 (λex=488 nm, λem=540 nm/Hamamatsu Photonics) for 60 sec after the stimulation with 10 nM capsaicin. Integral R was calculated and compared with controls. [Measurement of the Capsaicin-Induced Ca^2+ Influx in Primary Cultured Rat Dorsal Root Ganglia Neurons] (Assay 2) • (1) Preparation of Rat Dorsal Root Ganglia Neurons • New born Wister rats (5-11 days) were sacrificed and dorsal root ganglia (DRG) was removed. DRG was incubated with 0.1% trypsin (Gibco BRL) in PBS(−) (Gibco BRL) for 30 min at 37° C., then a half volume of fetal calf serum (FCS) was added and the cells were spun down. The DRG neuron cells were resuspended in Ham F12/5% FCS/5% horse serum (Gibco BRL) and dispersed by repeated pipetting and passing through 70 μm mesh Falcon). The culture plate was incubated for 3 hours at 37° C. to remove contaminating Schwann cells. Non-adherent cells were recovered and further cultured in laminin-coated 384 well plates (Nunc) at 1×10^4 cells/50 μl/well for 2 days in the presence of 50 ng/ml recombinant rat NGF (Sigma) and 50 μM 5-fluorodeoxyuridine (Sigma). • (2) Ca^2+ Mobilization Assay • DRG neuron cells were washed twice with HBSS supplemented with 17 mM HEPES (pH 7.4) and 0.1% BSA. After incubating with 2 μM fluo-3AM (Molecular Probe), 0.02% PF127 (Gibco BRL) and 1 mM probenecid (Sigma) for 40 min at 37° C., cells were washed 3 times. The cells were incubated with VR1 antagonists or vehicle (dimethylsulphoxide) and then with 1 μM capsaicin in FDSS-6000 (λex=480 nm, λem=520 nm/Hamamatsu Photonics). The fluorescence changes at 480 nm were monitored for 2.5 min. Integral R was calculated and compared with controls. [Organ Bath Assay to Measure the Capsaicin-Induced Bladder Contraction] (Assay 3)
The data corresponds to the compounds as yielded by solid phase synthesis and thus to levels of purity of about 40 to 90%. For practical reasons, the compounds are grouped in four classes of activity as follows: IC50=A(<or=)0.1 μM<B(<or=)0.5 μM<C(<or=)1 μM<D

T1 sequence (Q8NER1 whole entry): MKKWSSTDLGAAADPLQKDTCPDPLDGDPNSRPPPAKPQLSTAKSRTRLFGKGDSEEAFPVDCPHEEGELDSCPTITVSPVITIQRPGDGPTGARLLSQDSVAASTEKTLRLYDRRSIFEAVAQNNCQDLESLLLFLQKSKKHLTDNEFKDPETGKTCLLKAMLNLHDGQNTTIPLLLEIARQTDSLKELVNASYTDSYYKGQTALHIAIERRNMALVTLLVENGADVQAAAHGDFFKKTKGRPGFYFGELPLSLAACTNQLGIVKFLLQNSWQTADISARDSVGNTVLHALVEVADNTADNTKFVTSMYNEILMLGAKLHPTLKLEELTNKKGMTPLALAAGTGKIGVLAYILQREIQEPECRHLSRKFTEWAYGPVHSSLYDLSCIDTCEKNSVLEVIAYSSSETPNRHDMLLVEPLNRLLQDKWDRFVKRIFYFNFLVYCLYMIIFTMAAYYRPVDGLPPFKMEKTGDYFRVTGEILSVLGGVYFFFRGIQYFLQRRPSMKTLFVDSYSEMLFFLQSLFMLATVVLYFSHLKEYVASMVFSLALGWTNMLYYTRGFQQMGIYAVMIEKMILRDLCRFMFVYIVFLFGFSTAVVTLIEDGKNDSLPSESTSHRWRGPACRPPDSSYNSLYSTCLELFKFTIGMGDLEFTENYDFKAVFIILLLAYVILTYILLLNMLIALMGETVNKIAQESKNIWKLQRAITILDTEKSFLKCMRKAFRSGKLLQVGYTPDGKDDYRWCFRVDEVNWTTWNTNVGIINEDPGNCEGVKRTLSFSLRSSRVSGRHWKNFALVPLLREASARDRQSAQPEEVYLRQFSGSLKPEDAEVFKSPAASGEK

For `O=C(Nc1cccc2c1CC(O)CC2)Nc1cccc2ccccc12` (stereo not drawn) [Example 2-13], the melting point was in the range of 250 to 252 °C. In addition, the IC50 on human VR1 (Table 1) was below 0.1 µM.

For `O=C(Nc1ccc(F)cc1)Nc1cccc2c1CC(O)CC2` (stereo not drawn) [Example 2-15], the melting point was in the range of 214 to 216 °C. At human VR1 (Table 1), the IC50 fell in the range of 0.1 to 0.5 µM.

Take `Cc1ccc(NC(=O)Nc2ccc(Cl)c(C(F)(F)F)c2)c2c1CCC(O)C2` (stereo not drawn) [Example 2-39]: the melting point fell in the range of 219 to 220 °C. For the same compound, the IC50 at human VR1 (Table 1) was below 0.1 µM. `O=C(NCc1ccccc1Cl)Nc1cccc2c1CC(O)CC2` (stereo not drawn) [Example 2-30] came in with a melting point of 213 to 215 °C. Also, the IC50 at human VR1 (Table 1) was in the range of 0.1 to 0.5 µM. In the same order, the values of `CCNC(=O)Nc1cccc2c1CC(O)CC2` (stereo not drawn) [Example 2-33] are 216 to 217 °C and above 1 µM. In the same order, the values of `COc1ccc(CNC(=O)Nc2cccc3c2CC(O)CC3)cc1` (stereo not drawn) [Example 2-31] are 209 to 211 °C and 0.1 to 0.5 µM. The compound `CCOC(=O)c1ccccc1NC(=O)Nc1cccc2c1CC(O)CC2` (stereo not drawn) [Example 2-10] had a melting point of 178 to 180 °C. Moreover, at human VR1 (Table 1), the IC50 was above 1 µM.

In turn, `Cc1ccccc1NC(=O)Nc1cccc2c1CC(O)CC2` (stereo not drawn) [Example 5-6] gave a melting point of 223 °C. Besides, the IC50 at human VR1 (Table 3) lay in the range of 0.5 to 1 µM. On to `O=C(NCCc1ccccc1)Nc1cccc2c1CC(O)CC2` (stereo not drawn) [Example 2-32], for which the melting point lay within 161 to 163 °C. Also, the IC50 on human VR1 (Table 1) is 0.5 to 1 µM. Taken in the same sequence, the figures for `CCOC(=O)c1ccc(NC(=O)Nc2cccc3c2CC(O)CC3)cc1` (stereo not drawn) [Example 2-12] were 204 to 206 °C and below 0.1 µM. In turn, `O=C(Nc1ccc(Cl)c(C(F)(F)F)c1)Nc1cccc2c1CC(O)CC2` (stereo not drawn) [Example 1-1, N-[4-chloro-3-(trifluoromethyl)phenyl]-N′-(7-hydroxy-5,6,7,8-tetrahydro-1-naphthalenyl)urea] had a melting point of 227 to 228 °C. With `O=C(NCc1cccc(C(F)(F)F)c1)Nc1cccc2c1CC(O)CC2` (stereo not drawn) [Example 4-10], at human VR1 (Table 2), the IC50 is below 0.1 µM. Take `O=C(NCc1ccc(Cl)c(Cl)c1)Nc1cccc2c1CC(O)CC2` (stereo not drawn) [Example 4-18]: on human VR1 (Table 2), the IC50 was below 0.1 µM. `COC(=O)c1ccc(CNC(=O)Nc2cccc3c2CC(O)CC3)cc1` (stereo not drawn) [Example 4-22]: the IC50 on human VR1 (Table 2) is below 0.1 µM. Turning to `COc1ccc(CNC(=O)Nc2cccc3c2CC(O)CC3)c(OC)c1` (stereo not drawn) [Example 4-20], the IC50 at human VR1 (Table 2) lay within 0.1 to 0.5 µM. For `Cc1cc(C)cc(NC(=O)Nc2cccc3c2CC(O)CC3)c1` (stereo not drawn) [Example 5-21], on human VR1 (Table 3), the IC50 is below 0.1 µM. For `O=C(NCc1cccc(OC(F)(F)F)c1)Nc1cccc2c1CC(O)CC2` (stereo not drawn) [Example 4-29], the IC50 on human VR1 (Table 2) is below 0.1 µM. On to `O=C(NCc1ccc(Br)cc1)Nc1cccc2c1CC(O)CC2` (stereo not drawn) [Example 4-7], for which the IC50 at human VR1 (Table 2) was below 0.1 µM. With `O=C(NCc1ccccc1Br)Nc1cccc2c1CC(O)CC2` (stereo not drawn) [Example 4-21], the IC50 on human VR1 (Table 2) was below 0.1 µM.

Consider `O=C(Nc1ccc(Oc2ccc(Cl)cc2)cc1)Nc1cccc2c1CC(O)CC2` (stereo not drawn) [Example 4-39], for which the IC50 at human VR1 (Table 2) was below 0.1 µM.

Regarding `O=C(NCc1cccc(Cl)c1)Nc1cccc2c1CC(O)CC2` (stereo not drawn) [Example 4-14], on human VR1 (Table 2), the IC50 is below 0.1 µM. On to `COc1ccc(NC(=O)Nc2cccc3c2CC(O)CC3)cc1O` (stereo not drawn) [Example 5-15], for which the IC50 at human VR1 (Table 3) is 0.5 to 1 µM. As for `O=C(NCc1ccc(SC(F)(F)F)cc1)Nc1cccc2c1CC(O)CC2` (stereo not drawn) [Example 4-45], on human VR1 (Table 2), the IC50 is below 0.1 µM.

Consider `O=C(NCc1ccc(Cl)cc1Cl)Nc1cccc2c1CC(O)CC2` (stereo not drawn) [Example 4-15], for which the IC50 at human VR1 (Table 2) is below 0.1 µM. For `CC(NC(=O)Nc1cccc2c1CC(O)CC2)c1cccc2ccccc12` (stereo not drawn) [Example 4-49], on human VR1 (Table 2), the IC50 is below 0.1 µM. Still for that read-out and setting: for `CC(NC(=O)Nc1cccc2c1CC(O)CC2)c1ccc(F)cc1` (stereo not drawn) [Example 4-41] the value was 0.1 to 0.5 µM; for `O=C(NCc1ccc(Cl)cc1)Nc1cccc2c1CC(O)CC2` (stereo not drawn) [Example 4-9], below 0.1 µM. The same measure, in the same setting: the result for `COc1ccc(CNC(=O)Nc2cccc3c2CC(O)CC3)cc1OC` (stereo not drawn) [Example 4-27] reads 0.5 to 1 µM. For the compound `CC(C)c1cccc(NC(=O)Nc2cccc3c2CC(O)CC3)c1` (stereo not drawn) [Example 5-8], at human VR1 (Table 3), the IC50 was below 0.1 µM.

As a reminder, the melting point is the temperature of the solid-liquid transition.

The values are drawn from US7612113B2, “Hydroxy tetrahydro-naphthalenylurea derivatives” (Xention Limited, priority 2002, dated 2009).
